Results reported in patent US20230382904A1, “SUBSTITUTED 4-([1,2,4]TRIAZOLO[1,5-a]PYRIDIN-6-YL)THIOPHENE-2-CARBOXAMIDE DERIVATIVES AND USE THEREOF” (The Johns Hopkins University, priority 2020, published 2023).

What was measured:
[1] = molecular target: LZK (Homo sapiens (Human), UniProt O43283); assay: LZK biochemical assay (TR-FRET, MKK7 phosphorylation)
How it was run: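 Catalytic-domain LZK (10 nM) phosphorylated His-MKK7 (15 nM) with 15 μM ATP for 90 min at RT. Phospho-T275/S277 detected by Eu-anti-phospho-MKK7/XL665-anti-His TR-FRET after 16 h at 32° C, using the 665/Eu ratio. Buffer: 50 mM Hepes pH 7.5, 10 mM MgCl2, 1 mM DTT.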

[2] = molecular target: DLK (Homo sapiens (Human), UniProt Q12852); assay: DLK biochemical assay (TR-FRET, MKK7 phosphorylation)
How it was run: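 Catalytic-domain DLK (10 nM) phosphorylates His-MKK7 (15 nM) with 60 μM ATP, 90 min at RT, in pH 7.5 HEPES buffer. Phospho-T275/S277 read by TR-FRET (Eu anti-phospho donor, XL665 anti-His acceptor) after 16 h detection, at 37° C. in 1536 or 4° C. in 384 format.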

Chain of DLK (Q12852 1-520): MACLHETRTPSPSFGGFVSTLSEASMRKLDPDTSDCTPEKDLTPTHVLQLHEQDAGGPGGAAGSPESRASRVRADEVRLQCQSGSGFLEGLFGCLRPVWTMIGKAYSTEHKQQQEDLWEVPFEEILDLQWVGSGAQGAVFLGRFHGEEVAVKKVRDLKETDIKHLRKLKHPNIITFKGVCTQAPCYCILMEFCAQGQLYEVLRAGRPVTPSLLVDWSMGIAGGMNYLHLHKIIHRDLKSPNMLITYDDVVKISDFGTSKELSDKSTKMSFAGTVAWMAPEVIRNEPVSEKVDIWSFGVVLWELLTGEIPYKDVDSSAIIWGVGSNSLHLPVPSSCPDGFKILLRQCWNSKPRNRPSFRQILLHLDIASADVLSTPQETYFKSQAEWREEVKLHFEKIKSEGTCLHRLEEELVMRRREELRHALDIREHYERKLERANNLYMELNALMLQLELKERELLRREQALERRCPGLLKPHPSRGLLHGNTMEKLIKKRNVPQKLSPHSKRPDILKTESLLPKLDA
Chain of LZK (O43283 168-409): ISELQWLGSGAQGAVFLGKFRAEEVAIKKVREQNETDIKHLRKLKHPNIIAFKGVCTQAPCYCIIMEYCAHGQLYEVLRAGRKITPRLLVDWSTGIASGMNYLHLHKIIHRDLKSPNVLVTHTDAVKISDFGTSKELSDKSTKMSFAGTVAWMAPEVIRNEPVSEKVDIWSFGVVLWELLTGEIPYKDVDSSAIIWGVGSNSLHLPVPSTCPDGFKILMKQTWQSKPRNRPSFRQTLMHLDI

| Structure (SMILES) | IC50 [1] [µM] | IC50 [2] [µM] |
| --- | --- | --- |
| CCC(C)c1nnc(-c2cc(-c3csc(C(=O)N[C@@H](C)c4ccc(F)cc4)c3)cn3nc(N)nc23)s1 (some centres unmarked) [Compound 399] | 3.95 | 1.76 |
| COc1cccc(CNC(=O)c2cc(-c3cc(C(=O)NC(C)(C)C)c4nc(N)nn4c3)cs2)c1 [Compound 13] | 0.14 | 0.034 |
| COCCNC(=O)c1cc(-c2csc(C(=O)NCc3ccc(F)cc3)c2)cn2nc(N)nc12 [Compound 24] | 0.63 | 0.069 |
| COc1cccc(CNC(=O)c2cc(-c3ccn4nc(N)nc4c3)cs2)c1 [Compound 364] | 19 | 0.4 |
| Nc1nc2ccc(-c3csc(C(=O)NCc4c(F)cccc4F)c3)cn2n1 [Compound 221] | 9.2 | 1.24 |
| Nc1nc2ccc(-c3csc(C(=O)NC4CCCOC4)c3)cn2n1 (centres unmarked) [Compound 184] | 24 | 1.95 |
| Nc1nc2ccc(-c3csc(C(=O)NC4CCOCC4)c3)cn2n1 [Compound 185] | 26 | 1.7 |
| CC[C@@H](NC(=O)c1cc(-c2csc(C(=O)N[C@@H](C)c3ccc(F)cc3)c2)cn2nc(N)nc12)C(F)(F)F [Compound 127] | 8.3 | 0.93 |
| CC(C)(NC(=O)c1cc(-c2ccc3nc(N)nn3c2)cs1)c1ccc(F)cc1 [Compound 308] | 3 | 0.3 |
| Cc1ccc([C@H](C)NC(=O)c2cc(-c3cc(C(=O)NC(C)C)c4nc(N)nn4c3)cs2)cc1 [Compound 90] | 0.49 | 0.021 |
| CN(C(=O)c1cc(-c2ccc3nc(N)nn3c2)cs1)C1CCCCC1 [Compound 175] | > 30 | 9.55 |
| C[C@@H](CO)NC(=O)c1cc(-c2csc(C(=O)NCc3ccc(F)cc3)c2)cn2nc(N)nc12 [Compound 30] | 0.045 | 0.016 |
| Nc1nc2ccc(-c3csc(C(=O)NC4CCCc5cc(F)ccc54)c3)cn2n1 (centres unmarked) [Compound 318] | 1.7 | 0.13 |
| CCOc1cccc(CNC(=O)c2cc(-c3ccc4nc(N)nn4c3)cs2)c1 [Compound 191] | > 30 | 0.32 |
| Nc1nc2ccc(-c3csc(C(=O)NCCCc4ccccc4)c3)cn2n1 [Compound 215] | 30 | 0.72 |
| C[C@H](NC(=O)c1cc(-c2cc(C(=O)NC3CCNC3)c3nc(N)nn3c2)cs1)c1ccc(F)cc1 (mixture of isomers) [Compound 33] | 0.36 | 0.012 |

| Structure (SMILES) | IC50 [1] [µM] | IC50 [2] [µM] |
| --- | --- | --- |
| CC[C@H](NC(=O)c1cc(-c2cc(C(=O)NC3CCC3)c3nc(N)nn3c2)cs1)c1ccc(F)cc1 [Compound 137] | 0.3 | 0.0097 |
| COC[C@H](NC(=O)c1cc(-c2ccc3nc(N)nn3c2)cs1)c1ccccc1 [Compound 322] | 1.4 | 0.12 |
| C[C@H]1CCC[C@H](NC(=O)c2cc(-c3ccc4nc(N)nn4c3)cs2)C1 (single isomer, unassigned) [Compound 198] | > 30 | 1.25 |
| Nc1nc2c(C(=O)N[C@H](CO)C(F)(F)F)cc(-c3csc(C(=O)NCc4ccc(F)cc4)c3)cn2n1 [Compound 111] | 0.29 | 0.044 |
| Nc1nc2c(C(=O)N[C@H]3CCOC3)cc(-c3csc(C(=O)NCc4ccccc4)c3)cn2n1 [Compound 103] | 0.16 | 0.025 |
| CC(C)C(NC(=O)c1cc(-c2ccc3nc(N)nn3c2)cs1)c1ccc(F)cc1 (centres unmarked) [Compound 301] | 16.5 | 0.1 |
| COC[C@H](NC(=O)c1cc(-c2cc(C(=O)N[C@H]3CCOC3)c3nc(N)nn3c2)cs1)c1ccccc1 [Compound 107] | 0.046 | 0.0055 |
| Nc1nc2ccc(-c3csc(C(=O)NCc4cnc(Cl)s4)c3)cn2n1 [Compound 250] | 4.5 | 0.935 |
| Nc1nc2ccc(-c3csc(C(=O)NCc4cccc(F)c4)c3)cn2n1 [Compound 216] | 5.9 | 1.14 |
| CC(C)NC(=O)c1cc(-c2ccc3nc(N)nn3c2)cs1 [Compound 173] | 19 | 2.15 |
| CC(NC(=O)c1cc(-c2csc(C(=O)N[C@@H](C)c3ccc(F)cc3)c2)cn2nc(N)nc12)C(F)(F)F (mixture of isomers) [Compound 51] | 0.24 | 0.0285 |
| COc1cccc([C@H](C)NC(=O)c2cc(-c3ccc4nc(N)nn4c3)cs2)c1 [Compound 263] | > 30 | 0.355 |
| Nc1nc2c(F)cc(-c3csc(C(=O)NCc4ccc(F)cc4)c3)cn2n1 [Compound 382] | > 30 | 0.31 |
| CC[C@H](NC(=O)c1cc(-c2csc(C(=O)N[C@@H](C)c3ccc(F)cc3)c2)cn2nc(N)nc12)C(F)(F)F [Compound 144-5] | 2.6 | 0.63 |
| C[C@H](NC(=O)c1cc(-c2cc(C(=O)NC3CC3)c3nc(N)nn3c2)cs1)c1ccc(F)cc1 [Compound 45] | 0.43 | 0.024 |
| Cc1c(-c2ccc3nc(N)nn3c2)csc1C(=O)NCc1ccc(F)cc1 [Compound 352] | > 30 | 1 |

Further lines, results first:

| IC50 [1] [µM] | IC50 [2] [µM] | Structure (SMILES) |
| --- | --- | --- |
| 27 | 0.47 | Nc1nc2ccc(-c3csc(C(=O)NCc4cccc(OCCN5CCOCC5)c4)c3)cn2n1 [Compound 207] |
| 0.24 | 0.01 | CC[C@H](C)NC(=O)c1cc(-c2csc(C(=O)N[C@H](CC)c3ccc(F)cc3)c2)cn2nc(N)nc12 [Compound 133] |
| 0.62 | 0.11 | CC(C)NC(=O)c1cc(-c2csc(C(=O)NCC3CC3)c2)cn2nc(N)nc12 [Compound 128] |
| > 30 | 1.9 | CC(NC(=O)c1cc(-c2ccc3nc(N)nn3c2)cs1)c1ccc(OC(F)(F)F)cc1 (centres unmarked) [Compound 361] |
| 0.052 | 0.0063 | CC[C@H](C)NC(=O)c1cc(-c2csc(C(=O)N[C@@H](C)c3ccc(F)cc3)c2)cc2nc(N)nn12 [Compound 160] |
| 0.21 | 0.0115 | C[C@H](NC(=O)c1cc(-c2cc(C(=O)NC(C)(C)CO)c3nc(N)nn3c2)cs1)c1ccccc1 [Compound 79] |
| > 30 | 0.46 | Nc1nc2ccc(-c3csc(C(=O)NCc4cccc(OC(F)(F)F)c4)c3)cn2n1 [Compound 192] |
| 0.12 | 0.0055 | COC[C@H](NC(=O)c1cc(-c2cc(C(=O)N[C@H]3CCOC3)c3nc(N)nn3c2)cs1)c1ccc(F)cc1 [Compound 139] |
| > 30 | 1.5 | COC1CCC(NC(=O)c2cc(-c3ccc4nc(N)nn4c3)cs2)C1 (centres unmarked) [Compound 272] |
| 4.2 | 0.067 | CC[C@H](NC(=O)c1cc(-c2cc(C(=O)NC3COC3)c3nc(N)nn3c2)cs1)c1ccccc1 [Compound 75] |
| > 30 | 1.1 | Nc1nc2ccc(-c3csc(C(=O)NCc4cn5ccccc5n4)c3)cn2n1 [Compound 257] |
| 0.65 | 0.185 | Nc1nc2c(C(=O)NC3CCNC3)cc(-c3csc(C(=O)NCc4ccc(F)cc4)c3)cn2n1 (centres unmarked) [Compound 22] |
| 0.505 | 0.024 | CC(C)NC(=O)c1cc(-c2csc(C(=O)NC3CCCc4cc(F)ccc43)c2)cn2nc(N)nc12 (centres unmarked) [Compound 119] |
| > 30 | 1.5 | Nc1nc2ccc(-c3csc(C(=O)NCc4ccc(OCCN5CCOCC5)cc4)c3)cn2n1 [Compound 281] |
| 0.84 | 0.23 | Nc1nc2c(C(=O)NC3CCNC3)cc(-c3csc(C(=O)NCc4ccccc4)c3)cn2n1 (centres unmarked) [Compound 36] |
| 0.24 | 0.021 | CC(C)NC(=O)c1cc(-c2csc(C(=O)NC(COC(F)(F)F)c3ccccc3)c2)cn2nc(N)nc12 (centres unmarked) [Compound 117] |
| 0.016 | 0.0029 | CC[C@H](C)NC(=O)c1cc(-c2csc(C(=O)N[C@@H](COC)c3ccc(F)cc3)c2)cc2nc(N)nn12 [Compound 159] |
| 11 | 0.71 | Nc1nc2cc(F)c(-c3csc(C(=O)NCc4ccccc4)c3)cn2n1 [Compound 297] |
| 4.4 | 1.99 | Cn1nccc1CNC(=O)c1cc(-c2ccc3nc(N)nn3c2)cs1 [Compound 255] |
| 28 | 0.55 | Nc1nc2ccc(-c3csc(C(=O)NCc4cccnc4)c3)cn2n1 [Compound 206] |
| 0.15 | 0.058 | CC(C)(C)NC(=O)c1cc(-c2csc(C(=O)NCc3ccc(F)cc3)c2)cn2nc(N)nc12 [Compound 15] |
| 5.7 | 0.14 | CC[C@H](NC(=O)c1cc(-c2cc(-c3cnn(CC(F)(F)F)c3)c3nc(N)nn3c2)cs1)c1ccc(F)cc1 [Compound 403] |
| 24 | 0.23 | Cc1ccc([C@H](C)NC(=O)c2cc(-c3ccc4nc(N)nn4c3)cs2)cc1 [Compound 349] |
| 4.35 | 2.15 | CCC(C)c1nnc(-c2cc(-c3csc(C(=O)NCc4ccc(F)cc4)c3)cn3nc(N)nc23)s1 (centres unmarked) [Compound 400] |
| > 30 | > 30 | Cc1sc(C(=O)NCc2ccccc2)cc1-c1ccc2nc(N)nn2c1 [Compound 320] |
| > 30 | 0.48 | COc1ccccc1NC(=O)c1cc(-c2ccc3nc(N)nn3c2)cs1 [Compound 228] |
| > 30 | 0.97 | Nc1nc2ccc(-c3csc(C(=O)NC4CCC4)c3)cn2n1 [Compound 171] |
| 0.014 | 0.0022 | CC[C@H](C)NC(=O)c1cc(-c2csc(C(=O)N[C@@H](COC)c3ccccc3)c2)cn2nc(N)nc12 [Compound 116] |
| 2 | 2.6 | Nc1nc2ccc(-c3csc(C(=O)Nc4ccccc4CO)c3)cn2n1 [Compound 289] |
